Experimental data reported in patent publication US20210123061A1, “METHODS AND COMPOSITIONS FOR TREATING INFLAMMATORY DISEASE OR DISORDER” (THE BRIGHAM AND WOMEN'S HOSPITAL, INC., priority 2018, published 2021).
Where two headings read alike, the source gives them in different places.

Experiments:
[1] = tested on: RSK1 (RPS6KA1) gene expression; settings: cited from earlier work; for RSK1 (agents that alter RSK1 expression): Table 1, pert_type trt_cp = small molecule, trt_sh = shRNA; for RPS6KA1 (small molecules that inhibit RSK1 expression): Table 2
[2] = tested on: RSK1 (S230p) phosphorylation site; settings: P100 dataset, cited from earlier work
[3] = molecular target: T1, Signal transducer and activator of transcription 1 (STAT1)
T1 chain: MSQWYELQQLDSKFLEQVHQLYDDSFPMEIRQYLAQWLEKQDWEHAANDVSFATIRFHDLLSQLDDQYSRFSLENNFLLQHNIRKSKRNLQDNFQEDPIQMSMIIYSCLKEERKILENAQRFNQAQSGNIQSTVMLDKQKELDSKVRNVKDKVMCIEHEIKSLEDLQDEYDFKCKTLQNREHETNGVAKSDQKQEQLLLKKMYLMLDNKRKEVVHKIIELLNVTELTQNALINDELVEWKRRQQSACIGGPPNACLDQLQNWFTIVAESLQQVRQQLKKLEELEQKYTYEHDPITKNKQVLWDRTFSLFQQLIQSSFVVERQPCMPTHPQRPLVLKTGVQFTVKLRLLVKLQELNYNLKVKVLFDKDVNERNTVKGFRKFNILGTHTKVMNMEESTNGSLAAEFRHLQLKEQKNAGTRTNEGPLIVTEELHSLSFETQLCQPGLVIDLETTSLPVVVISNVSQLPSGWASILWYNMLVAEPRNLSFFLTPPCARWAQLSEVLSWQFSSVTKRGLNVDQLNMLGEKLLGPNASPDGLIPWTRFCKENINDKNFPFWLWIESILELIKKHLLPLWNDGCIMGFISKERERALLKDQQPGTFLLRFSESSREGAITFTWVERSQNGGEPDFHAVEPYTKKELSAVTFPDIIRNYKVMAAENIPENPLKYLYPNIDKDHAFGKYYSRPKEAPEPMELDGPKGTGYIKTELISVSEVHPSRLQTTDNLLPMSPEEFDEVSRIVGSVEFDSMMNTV

CN(C)C(=O)c1cccc(-c2cccc(-c3nc(C(=O)NC4CCCCC4)cc4c3[C@@H](CCO)N([S@+]([O-])C(C)(C)C)C4)c2)c1 [BRD-K08663380]
RSK1 (agents that alter RSK1 expression) [1]: −0.65

CC1=NN(c2ccc(C(=O)O)cc2)C(=O)/C1=C/c1ccc(-c2cc(C)c(C)cc2[N+](=O)[O-])o1 [BRD-K68548958]
RSK1 (agents that alter RSK1 expression) [1]: −0.99

O=C1[C@H](Cc2ccc(O)cc2)N2C(=O)CCN(C(=O)NCc3ccccc3)[C@H]2CN1Cc1cccc2ccccc12 [BRD-K73261812]
RSK1 (agents that alter RSK1 expression) [1]: −0.97

Cc1c[nH]c(-c2cnc(NCCNc3ccc(C#N)cn3)nc2-c2ccc(Cl)cc2Cl)n1 [CHIR-99021]
modulation of RSK1-S230p phosphorylation ([2]; YAPC cell line): modulated

c1ccc2c(-c3cnn4cc(-c5ccc(N6CCNCC6)cc5)cnc34)ccnc2c1 [LDN-193189]
RSK1 (agents that alter RSK1 expression) [1]: −1.38

C=CCn1c(=O)c2cnc(Nc3ccc(N4CCN(C)CC4)cc3)nc2n1-c1cccc(C(C)(C)O)n1 [MK-1775]
RSK1 expression effect under various conditions ([1]; FIG. 20): U937-specific effect

CCNC(=O)c1noc(-c2cc(C(C)C)c(O)cc2O)c1-c1ccc(CN2CCOCC2)cc1 [NVP-AUY922]
RSK1 (agents that alter RSK1 expression) [1]: −1.23

Oc1cccc(-c2nc(N3CCOCC3)c3oc4ncccc4c3n2)c1 [PI-103]
RSK1 (agents that alter RSK1 expression) [1]: −0.54

CN[C@@H]1C[C@H]2O[C@@](C)([C@@H]1OC)n1c3ccccc3c3c4c(c5c6ccccc6n2c5c31)C(=O)NC4 [Staurosporine]
modulation of RSK1-S230p phosphorylation ([2]; MCF7 cell line): modulated

O=C(c1ccc(C(=O)N2CCC(N3CCCC3)CC2)c(Nc2ccccc2)c1)N1CCC(N2CCCC2)CC1 [UNC-1215]
modulation of RSK1-S230p phosphorylation ([2]; PC3 cell line): modulated

FC(F)c1nc2ccccc2n1-c1nc(N2CCOCC2)nc(N2CCOCC2)n1 [ZSTK-474]
RSK1 (agents that alter RSK1 expression) [1]: −0.73

C=C[C@](C)(O)CC/C=C(\C)C(=O)O[C@H]1[C@H](O)[C@@H](O)[C@H](O[C@@](C)(C=C)CC/C=C(\CO)C(=O)O[C@H]2C[C@]3(C(=O)O[C@@H]4O[C@H](CO)[C@@H](O)[C@H](O)[C@H]4O[C@@H]4O[C@@H](C)[C@H](O[C@@H]5O[C@@H](CO)[C@H](O)[C@H]5O)[C@@H](O[C@@H]5O[C@H](CO)[C@@H](O)[C@H](O)[C@H]5O)[C@H]4O)[C@H](O)C[C@]4(C)C(=CC[C@@H]5[C@@]6(C)CC[C@H](O[C@@H]7O[C@H](CO[C@@H]8O[C@H](C)[C@H](O)[C@H](O)[C@H]8O[C@@H]8OC[C@@H](O)[C@H](O)[C@H]8O)[C@@H](O)[C@H](O)[C@H]7NC(C)=O)C(C)(C)[C@@H]6CC[C@]54C)[C@@H]3CC2(C)C)O[C@@H]1C [avicin-g]
RSK1 (agents that alter RSK1 expression) [1]: −1.17

C/C=C/C/C=C/CCC(=O)[C@H]1O[C@H]1C(N)=O [cerulenin, (2R,3S)-3-[(4E,7E)-1-Oxo-4,7-nonadien-1-yl]-2-oxiranecarboxamide]
RSK1 (agents that alter RSK1 expression) [1]: −1.40
RPS6KA1 (small molecules that inhibit RSK1 expression) [1]: −1.40

CCCC[C@@H](C)/C=C(C)/C=C(\C)C(=O)NC1=C[C@@](O)(/C=C/C=C/C=C/C(=O)NC2=C(O)CCC2=O)C2O[C@@H]2C1=O (stereo partly drawn) [manumycin-a, N-[(1S,5S,6R)-5-hydroxy-5-[(1E,3E,5E)-7-[(2-hydroxy-5-oxo-1-cyclopenten-1-yl)amino]-7-oxo-1,3,5-heptatrien-1-yl]-2-oxo-7-oxabicyclo [4.1.0]hept-3-en-3-yl]-2E,4E,6R-trimethyl,2,4-decadienamide]
RSK1 (agents that alter RSK1 expression) [1]: −1.48
RPS6KA1 (small molecules that inhibit RSK1 expression) [1]: −1.48

C=C1[C@@H](O)[C@@H]2O[C@]3(CC[C@H](/C=C/[C@@H](C)[C@@H]4CC(C)=C[C@@]5(O[C@H](C[C@@](C)(O)C(=O)O)CC[C@H]5O)O4)O3)CC[C@H]2O[C@@H]1[C@@H](O)C[C@H](C)[C@H]1O[C@@]2(CCCCO2)CC[C@H]1C [okadaic acid]
modulation of RSK1-S230p phosphorylation ([2]; YAPC cell line): modulated

CC(C(=O)Nc1cccc(/N=C/c2c(O)ccc3ccccc23)c1)c1ccccc1 (stereo not shown) [salermide]
RSK1 (agents that alter RSK1 expression) [1]: −0.98
RPS6KA1 (small molecules that inhibit RSK1 expression) [1]: −0.98

C[S+]([O-])CCCCN=C=S (stereo not shown) [sulforaphane]
RSK1 (agents that alter RSK1 expression) [1]: −0.50

C=CCNC1=C2C[C@@H](C)C[C@H](OC)[C@H](O)[C@@H](C)/C=C(\C)[C@H](OC(N)=O)[C@@H](OC)/C=C\C=C(/C)C(=O)NC(=CC1=O)C2=O [tanespimycin, 17-N-allylamino-17-demethoxygeldanamycin]
RPS6KA1 (small molecules that inhibit RSK1 expression) [1]: −1.17

CC(C)C[C@@H](C(=O)N[C@H](C(=O)OC1CCCC1)c1ccccc1)[C@H](O)C(=O)NO [tosedostat, αS-[[(2R)-2-[(1S)-1-hydroxy-2-(hydroxyamino)-2-oxoethyl]-4-methyl-1-oxopentyl]amino]-benzeneacetic acid, cyclopentyl ester]
RSK1 (agents that alter RSK1 expression) [1]: −0.96
RPS6KA1 (small molecules that inhibit RSK1 expression) [1]: −0.96

O=C(CCCCCCC(=O)Nc1ccccc1)NO [vorinostat]
modulation of RSK1-S230p phosphorylation ([2]; YAPC cell line): modulated

B1: Ribosomal S6 Kinase-1 (RSK1), recombinant (protein)
chain: MEQDPKPPRLRLWALIPWLPRKQRPRISQTSLPVPGPGSGPQRDSDEGVLKEISITHHVKAGSEKADPSHFELLKVLGQGSFGKVFLVRKVTRPDSGHLYAMKVLKKATLKVRDRVRTKMERDILADVNHPFVVKLHYAFQTEGKLYLILDFLRGGDLFTRLSKEVMFTEEDVKFYLAELALGLDHLHSLGIIYRDLKPENILLDEEGHIKLTDFGLSKEAIDHEKKAYSFCGTVEYMAPEVVNRQGHSHSADWWSYGVLMFEMLTGSLPFQGKDRKETMTLILKAKLGMPQFLSTEAQSLLRALFKRNPANRLGSGPDGAEEIKRHVFYSTIDWNKLYRREIKPPFKPAVAQPDDTFYFDTEFTSRTPKDSPGIPPSAGAHQLFRGFSFVATGLMEDDGKPRAPQAPLHSVVQQLHGKNLVFSDGYVVKETIGVGSYSECKRCVHKATNMEYAVKVIDKSKRDPSEEIEILLRYGQHPNIITLKDVYDDGKHVYLVTELMRGGELLDKILRQKFFSEREASFVLHTIGKTVEYLHSQGVVHRDLKPSNILYVDESGNPECLRICDFGFAKQLRAENGLLMTPCYTANFVAPEVLKRQGYDEGCDIWSLGILLYTMLAGYTPFANGPSDTPEEILTRIGSGKFTLSGGNWNTVSETAKDLVSKMLHVDPHQRLTAKQVLQHPWVTQKDKLPQSQLSHQDLQLVKGAMAATYSALNSSKPTPQLKPIESSILAQRRVRKLPSTTL
phosphorylation of STAT1 at Ser727 in vitro (kinase reaction, immunoblot) [3]: RSK1 is capable of phosphorylating STAT1 at Ser727 in vitro
